Reference: US9682965B2, “Fumagillol heterocyclic compounds and methods of making and using same” (Zafgen, Inc., priority 2015, dated 2017)
Where a name gives a salt, the structure may show the parent alone. Read-outs that look alike come from different tables or passages of the source.

Legend:
[1] = system: Diet Induced Obese (DIO) C57BL/6 mice; assay: 10 day DIO mouse model (body weight, food intake, hematology, blood chemistry); format: in vivo; conditions: 240 h, DIO mouse, once a day for 10 days, read-out: DIO Mouse 10-day weight loss vs vehicle; for inhibition in vivo at 0.3 mg/kg: 0.3 mpk sc; for inhibition in vivo at 1 mg/kg: 1.0 mpk sc
Outline: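 DIO C57BL/6 mice on 60% kcal fat diet received compounds subcutaneously once daily for 10 days at 1.0, 0.5, 0.3, 0.1 or 0.03 mpk, in 10% DMSO in water, after 3-day vehicle acclimation. Body weight and food intake were recorded daily. Hematology and blood chemistry were taken on Day 11, 24 h post-final dose.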

recombinant human MetAP2 = recombinant human MetAP2 (Homo sapiens (Human), UniProt P50579); assay: recombinant human MetAP2 enzyme inhibition assay; format: biochemical
Procedure: Compounds are tested for their capacity to inhibit recombinant human MetAP2 activity using the following assay.
Flag tagged Human recombinant MetAP2 expressed and isolated for use as the enzyme source. 10 mM stock solutions of compounds were prepared in 100% DMSO and further diluted in 100% DMSO required concentration to 1 mM stocks. The stock compound solutions and DMSO vehicle controls were diluted to target final compound concentrations using assay buffer to a final concentration of 50 mM HEPES containing 100 mM NaCl, pH adjusted to 7.5. The MAS peptide was formulated to a 7.5 mM stock in distilled water and prior to use further diluted 1:4. […] 40 μl of enzyme was mixed with 100 μl of MnCl2 then further diluted in assay buffer to a final concentration of 16 μg/ml. To test for compound effect on MetAP2 enzyme activity, 5 μl of test compound, 10 μl of MAS substrate/amino acid oxidase mixture, 10 μl of MetAP2 was added to test wells in a 384 well black plate with blank wells containing no enzyme, replaced with 10 μl of assay buffer. All compounds were tested in duplicate on two occasions on the same day.
The plate was sealed with a TopSeal A cover and mixed briefly on an orbital mixer at 900 rpm. The plate was incubated for a further 25 minutes at 25° C. A 5× stock of Amplex buffer was prepared (0.25M sodium phosphate, pH 7.4) and stored at 4° C. […] 25 μl detection reagent was added to each well of the test plate, which was re-sealed and mixed briefly on an orbital shaker.

[2] = system: Male Sprague Dawley rats on high fat diet; assay: 11 day rat DIO model (body weight, food intake, hematology, blood chemistries); format: in vivo; conditions: 264 h, DIO rat, once a day for 11 days, read-out: DIO Rat 11-day weight loss vs vehicle; for inhibition in vivo at 0.3 mg/kg: 0.3 mpk sc
From the text: The objective of this study design is to investigate the efficacy of disclosed compounds in an 11 day rat DIO model used to screen compounds for pharmacologic efficacy on endpoints related to obesity and metabolism. Effects on body weight, food intake, hematology and blood chemistries were the primary readouts of this study design. […] Rats were fed Research Diets D12451 (45% High Fat) and provided water ad libitum. Rats were received and housed in the facility for at least two or three weeks prior to start of test article administration. On Day −4 or −3, rats were randomized into study groups based on body weight and body weights were continued to be recorded daily for the duration of the study. Daily food intake was assessed starting on Study Day −2 by weighing the hopper including the food to avoid loss of food in transfer.
Compounds were formulated into a 100% DMSO stock (at 9 mg/mL) prior to the start, and further diluted into the target working concentration using the vehicle of 10% DMSO in water. Prior to test article administration, starting on Day −3 a dosing acclimation occured with all animals receiving a subcutaneous injection of vehicle (10% DMSO) only for 3 days. Starting on Day 1, test compounds or vehicle were administered based on individual body weight, subcutaneously, once a day for 11 days. All animals were sacrificed on Day 11, approximately 2 hours following the final dosing on Day 11. After sacrifice, whole blood was collected and analyzed for hematology and blood chemistry parameters.
Compounds were tested vs. vehicle at various doses (1.0, 0.5, 0.3, 0.1, 0.03 mpk sc (mg per kg animal weight delivered subcutaneously), and the results are shown in Table 2 below.

[3] = recombinant human MetAP2, MAS peptide substrate, 25 minutes at 25° C

recombinant human MetAP2, sequence (P50579 whole entry): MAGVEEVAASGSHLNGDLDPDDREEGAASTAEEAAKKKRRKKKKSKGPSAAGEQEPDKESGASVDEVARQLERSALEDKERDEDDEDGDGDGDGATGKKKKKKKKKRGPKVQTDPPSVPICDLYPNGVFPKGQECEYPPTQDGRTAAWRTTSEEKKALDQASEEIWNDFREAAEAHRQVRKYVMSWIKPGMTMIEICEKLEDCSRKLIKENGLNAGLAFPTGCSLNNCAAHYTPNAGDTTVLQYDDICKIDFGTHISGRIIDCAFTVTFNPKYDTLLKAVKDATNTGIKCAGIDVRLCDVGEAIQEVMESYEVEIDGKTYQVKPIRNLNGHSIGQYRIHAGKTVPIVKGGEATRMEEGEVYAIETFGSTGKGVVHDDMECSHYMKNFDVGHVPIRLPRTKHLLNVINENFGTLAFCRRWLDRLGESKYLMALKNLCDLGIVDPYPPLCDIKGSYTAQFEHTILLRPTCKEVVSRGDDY

Row | SMILES | IC50 (recombinant human MetAP2; [3]) | inhibition in vivo at 0.3 mg/kg [1] | inhibition in vivo at 1 mg/kg [1] | inhibition in vivo at 0.3 mg/kg [2] | inhibition in vivo at 1 mg/kg ([2]; 1.0 mpk sc) | IC50 (recombinant human MetAP2)
1 | CO[C@@H]1[C@H](OC(=O)N2CC(CCN3CCCCC3)C2)CC[C@]2(CO2)[C@H]1[C@@]1(C)O[C@@H]1CC=C(C)C [Example 4, (3R,4S,5S,6R)-5-methoxy-4-((2R,3R)-2-methyl-3-(3-methylbut-2-enyl)oxiran-2-yl)-1-oxaspiro[2.5]octan-6-yl 3-(2-(piperidin-1-yl)ethyl)azetidine-1-carboxylate formate] | < 50 nM | 4.1% | – | – | – | –
2 | CCN(CC)CCC1(O)CN(C(=O)O[C@@H]2CC[C@]3(CO3)[C@@H]([C@@]3(C)O[C@@H]3CC=C(C)C)[C@@H]2OC)C1 [Example 49, (3R,4S,5S,6R)-5-methoxy-4-((2R,3R)-2-methyl-3-(3-methylbut-2-enyl)oxiran-2-yl)-1-oxaspiro[2.5]octan-6-yl 3-(2-(diethylamino)ethyl)-3-hydroxyazetidine-1-carboxylate] | < 50 nM | 4.1% | – | – | – | –
3 | CCNC[C@H]1CCN1C(=O)O[C@@H]1CC[C@]2(CO2)[C@@H]([C@@]2(C)O[C@@H]2CC=C(C)C)[C@@H]1OC [Example 123, (R)-((3R,4S,5S,6R)-5-methoxy-4-((2R,3R)-2-methyl-3-(3-methylbut-2-enyl)oxiran-2-yl)-1-oxaspiro[2.5]octan-6-yl) 2-((ethylamino)methyl)azetidine-1-carboxylate formate] | < 50 nM | – | 9.7% | 1% | 5.4% | –
4 | CCN(CC)CC[C@H]1CCN(C(=O)O[C@@H]2CC[C@]3(CO3)[C@@H]([C@@]3(C)O[C@@H]3CC=C(C)C)[C@@H]2OC)C1 [Example 53, (S)-((3R,4S,5S,6R)-5-methoxy-4-((2R,3R)-2-methyl-3-(3-methylbut-2-enyl)oxiran-2-yl)-1-oxaspiro[2.5]octan-6-yl) 3-(2-(diethylamino)ethyl)pyrrolidine-1-carboxylate] | < 50 nM | 10.9% | – | 3% | – | –
5 | CCN(CC)CCNC(=O)OC1CN(C(=O)O[C@@H]2CC[C@]3(CO3)[C@@H]([C@@]3(C)O[C@@H]3CC=C(C)C)[C@@H]2OC)C1 [Example 73, (3R,4S,5S,6R)-5-methoxy-4-((2R,3R)-2-methyl-3-(3-methylbut-2-en-1-yl)oxiran-2-yl)-1-oxaspiro[2.5]octan-6-yl 3-(((2-(diethylamino)ethyl)carbamoyl)oxy)azetidine-1-carboxylate] | < 50 nM | 7.4% | – | – | – | –
6 | CO[C@@H]1[C@H](OC(=O)N2CC(CCN3CCC(C)(O)CC3)C2)CC[C@]2(CO2)[C@H]1[C@@]1(C)O[C@@H]1CC=C(C)C [Example 8, (3R,4S,5S,6R)-5-methoxy-4-((2R,3R)-2-methyl-3-(3-methylbut-2-enyl)oxiran-2-yl)-1-oxaspiro[2.5]octan-6-yl 3-(2-(4-hydroxy-4-methylpiperidin-1-yl)ethyl)azetidine-1-carboxylate] | < 50 nM | 4.9% | 17.3% | – | – | –
7 | CO[C@@H]1[C@H](OC(=O)N2CC(CCN3CC4(COC4)C3)C2)CC[C@]2(CO2)[C@H]1[C@@]1(C)O[C@@H]1CC=C(C)C [Example 16, (3R,4S,5S,6R)-5-methoxy-4-((2R,3R)-2-methyl-3-(3-methylbut-2-en-1-yl)oxiran-2-yl)-1-oxaspiro[2.5]octan-6-yl 3-(2-(2-oxa-6-azaspiro[3.3]heptan-6-yl)ethyl)azetidine-1-carboxylate] | < 50 nM | 3.1% | – | – | – | –
8 | CCNCCCC1CN(C(=O)O[C@@H]2CC[C@]3(CO3)[C@@H]([C@@]3(C)O[C@@H]3CC=C(C)C)[C@@H]2OC)C1 [Example 124, (3R,4S,5S,6R)-5-methoxy-4-((2R,3R)-2-methyl-3-(3-methylbut-2-enyl)oxiran-2-yl)-1-oxaspiro[2.5]octan-6-yl 3-(3-(ethylamino)propyl)azetidine-1-carboxylate formate] | – | 4.9% | – | – | – | < 50 nM
9 | CCN(CC)CC[C@H]1CCN(C(=O)O[C@@H]2CC[C@]3(CO3)[C@@H]([C@@]3(C)O[C@@H]3CC=C(C)C)[C@@H]2OC)C1 [Example 52, (S)-((3R,4S,5S,6R)-5-methoxy-4-((2R,3R)-2-methyl-3-(3-methylbut-2-enyl)oxiran-2-yl)-1-oxaspiro[2.5]octan-6-yl) 3-(2-(diethylamino)ethyl)pyrrolidine-1-carboxylate] | < 50 nM | 8.3% | – | 4% | – | –
10 | CCN(CC)CCNC(=O)CC1CN(C(=O)O[C@@H]2CC[C@]3(CO3)[C@@H]([C@@]3(C)O[C@@H]3CC=C(C)C)[C@@H]2OC)C1 [Example 66, (3R,4S,5S,6R)-5-methoxy-4-((2R,3R)-2-methyl-3-(3-methylbut-2-enyl)oxiran-2-yl)-1-oxaspiro[2.5]octan-6-yl 3-(2-(2-(diethylamino)ethylamino)-2-oxoethyl)azetidine-1-carboxylate] | < 50 nM | 7.6% | – | – | – | –

Further lines, with some results ahead:

Row | IC50 (recombinant human MetAP2; [3]) | SMILES | inhibition in vivo at 0.3 mg/kg [1] | inhibition in vivo at 1 mg/kg [1] | inhibition in vivo at 0.3 mg/kg [2] | inhibition in vivo at 1 mg/kg ([2]; 1.0 mpk sc) | IC50 (recombinant human MetAP2)
11 | < 50 nM | CCNCCC1CN(C(=O)O[C@@H]2CC[C@]3(CO3)[C@@H]([C@@]3(C)O[C@@H]3CC=C(C)C)[C@@H]2OC)C1 [Example 121, (3R,4S,5S,6R)-5-methoxy-4-((2R,3R)-2-methyl-3-(3-methylbut-2-en-1-yl)oxiran-2-yl)-1-oxaspiro[2.5]octan-6-yl3-(2-(ethylamino)ethyl)azetidine-1-carboxylate] | 7.5% | 12.6% | 5% | – | –
12 | < 50 nM | CO[C@@H]1[C@H](OC(=O)N2CC(CCN3CCC3)C2)CC[C@]2(CO2)[C@H]1[C@@]1(C)O[C@@H]1CC=C(C)C [Example 5, (3R,4S,5S,6R)-5-methoxy-4-((2R,3R)-2-methyl-3-(3-methylbut-2-en-1-yl)oxiran-2-yl)-1-oxaspiro[2.5]octan-6-yl 3-(2-(azetidin-1-yl)ethyl)azetidine-1-carboxylate] | 4.3% | – | – | – | –
13 | < 50 nM | CO[C@@H]1[C@H](OC(=O)N2CC(CC(N)=O)C2)CC[C@]2(CO2)[C@H]1[C@@]1(C)O[C@@H]1CC=C(C)C [Example 65, (3R,4S,5S,6R)-5-methoxy-4-((2R,3R)-2-methyl-3-(3-methylbut-2-enyl)oxiran-2-yl)-1-oxaspiro[2.5]octan-6-yl 3-(2-amino-2-oxoethyl)azetidine-1-carboxylate] | 2.6% | – | – | – | –
14 | < 50 nM | CO[C@@H]1[C@H](OC(=O)N2CC(OC(N)=O)C2)CC[C@]2(CO2)[C@H]1[C@@]1(C)O[C@@H]1CC=C(C)C [Example 72, (3R,4S,5S,6R)-5-methoxy-4-((2R,3R)-2-methyl-3-(3-methylbut-2-enyl)oxiran-2-yl)-1-oxaspiro[2.5]octan-6-yl 3-(carbamoyloxy)azetidine-1-carboxylate] | 0.8% | – | – | – | –
15 | < 50 nM | CO[C@@H]1[C@H](OC(=O)N2CC(CC(=O)N3CCOCC3)C2)CC[C@]2(CO2)[C@H]1[C@@]1(C)O[C@@H]1CC=C(C)C [Example 62, (3R,4S,5S,6R)-5-methoxy-4-((2R,3R)-2-methyl-3-(3-methylbut-2-enyl)oxiran-2-yl)-1-oxaspiro[2.5]octan-6-yl 3-(2-morpholino-2-oxoethyl)azetidine-1-carboxylate formate] | 7.4% | – | – | – | –
16 | < 50 nM | CNC(=O)NC1CN(C(=O)O[C@@H]2CC[C@]3(CO3)[C@@H]([C@@]3(C)O[C@@H]3CC=C(C)C)[C@@H]2OC)C1 [Example 84, (3R,4S,5S,6R)-5-methoxy-4-((2R,3R)-2-methyl-3-(3-methylbut-2-enyl)oxiran-2-yl)-1-oxaspiro[2.5]octan-6-yl 3-(3-methylureido)azetidine-1-carboxylate] | 0.8% | – | – | – | –
